The values that follow come from article PMC9510126, “Hydrophobicity is a key determinant in the activity of arginine-rich cell penetrating peptides” (Scientific Reports, 2022).

Ends that are not written are not given here. * marks the point of attachment. RhodamineB = CCN(CC)c1ccc2c(-c3ccccc3C(=O)*)c3ccc(=[N+](CC)CC)cc-3oc2c1

Data set [1] is described as follows: RP-18 TLC hydrophobicity (1-Rf) of Ac-X-NH2 analogs. Type of data set: physicochemical. Particulars: RP18 TLC, 40% acetonitrile / 60% PBS (10 mM phosphate buffer), pH 4 vs pH 8. As to the method:
(§1) In order to assess the hydrophobicity contributed by each X group, the peptides were first analyzed by reverse phase HPLC using a C18 column, using gradients of buffer A (water/TFA 99.9:0.1) and buffer B (acetonitrile/water/TFA 89.9:10:0.1 v:v:v) (gradient of 0–40% B over 20 min). […] All d(X)TAT peptides eluted over a range of 10–35% acetonitrile. […] One caveat of this approach is that the buffer system used for peptide analysis is pH 2 (due to the presence of TFA, required to protonate residue side chains). However, pH 2 is not representative of the pH that CPPs may be exposed to when in contact with cells, either pH 7.2 outside the plasma membrane, or pH between 6.5 and 4.5 while inside acidic endosomes. In order to establish the relative hydrophobicities of d(X)TAT peptides at these pHs, we sought to use other techniques, including thin layer chromatography using C18, aluminum oxide or silica stationary phases. Unfortunately, the arginine-rich peptides could not be separated on these systems. To solve this problem, each individual X group was synthesized, using acetylated and amidated N and C-terminal positions to mimic the peptide backbone found in the d(X)TAT constructs (Fig. 1A, Figure S11). Each Ac-X-NH2 group was analyzed by HPLC and by RP18 TLC, using 40% acetonitrile and 60% PBS as mobile phase. The HPLC elutions of Ac-X-NH2 correlated with the HPLC elutions of their respective d(X)TAT counterparts (Fig. 1C). Similarly, the relative hydrophobicities of Ac-X-NH2 determined by TLC (measured as 1-Rf) at pH 4 or 8 were in good agreement with the results obtained by HPLC (Fig. 1D). […] In the case of DEAC, the protonation state of the fluorophore has, to our knowledge, not been characterized.
Hydrophobic substituents (10 µL) were developed on aluminum-backed F254 RP-18 TLC plates (EMD Millipore). Plates were cut into 6 cm × 6 cm squares and developed in 40% acetonitrile/60% 10 mM phosphate buffer first along one axis at pH 2.0, then along the second axis at pH 7.4. Peptide substituents that could not be easily identified under long-wave UV light were stained with iodine for 10–20 min. Retention factors (Rf) were calculated based on the distance traveled by each compound between the starting spotted location and the final solvent front location.

On the set-up of data set [2]: method as in PMID 24227203. Conditions: cited from earlier work.
For data set [3], the system named is live cells. Particulars: cited from earlier work. The protocol:
Several strategies have been pursued to improve the delivery properties of CPPs like TAT. They include addition of endosomolytic peptide sequences, addition of hydrophobic residues and cyclization. We and others have shown that reagents which combine multiple copies of the TAT peptide, or TAT-like analogs, are also more efficient at entering cells than their monomeric TAT counterpart. […] In particular, protein payloads co-incubated with dfTAT reach the cytosol of cells by escaping late endosomes specifical ...

A short description of data set [4]: C18 reverse phase HPLC hydrophobicity of (X)TAT and d(X)TAT peptides. Type of data set: physicochemical. Conditions: chromatographic, C18, 0–40% B over 20 min. The protocol: as §1
All rpHPLC retention times were analyzed using an Agilent HP 1200 series instrument on an analytical Phenomenex Luna Omega Polar C18 column (5 μm, 4.6 mm × 250 mm). The flow rate was 2 mL/min, and detection was at 214 nm. A binary solvent system was used comprising 99.9% H2O/0.1% TFA (solvent A) and 90% Acetonitrile/9.9% H2O/0.1% TFA (solvent B). […]

Data set [5] deals with MDA-MB-231 cells. Kind of data set: Delivery of TMR-k5 probe into live cells (nuclear staining). Type of data set: cell-based, human. Conditions: MDA-MB-231, TMR-k5 20 μM, 1 h, biological triplicates. The text has this:
To test the relative delivery efficiency of the d(X)TAT peptides, the cell lines MDA-MB-231 (epithelial-like, human breast cancer, spindle-shaped) and Neuro-2a (mouse neuroblastoma with neuronal and amoeboid stem cell morphology) were chosen. These cell lines are routinely used in cancer research, neuroscience, and toxicology. In the context of this study, we rationalized that the distinct differences in origin and characteristics between MDA-MB-231 and Neuro-2a properties may be useful to assess the generality of the results obtained. MDA-MB-231 or Neuro-2a cells were incubated with d(X)TAT peptides at various concentrations and TMR-k5 (20 μM) for 1 h. Cells were then washed, incubated with the DNA stain Hoechst and the live/dead marker SYTOX green (or SYTOX blue), and imaged by fluorescence microscopy. The localization of TMR-k5 in individual nuclei was then assessed by measuring the overlap between TMR and Hoechst signals (Fig. 2, Figure S13). […] This is because, in our experience, dfTAT and dfTAT analogs display a threshold behavior where, below a certain endosomal concentration, endosomal leakage is not achieved. In contrast above this threshold most late endosomes are permeabilized. […] Our rationale was therefore to titrate cells with different concentrations of d(X)TAT agents, monitor how many cells display cytosolic/nuclear delivery of TMR-k5, and compare the different d(X)TAT peptides.
MDA-MB-231 and Neuro2a cells obtained from ATCC (breast cancer-derived epithelial) were cultured in humidified atmosphere at 5% CO2 and 37 °C. Cells were seeded in plastic 48-well plates (Fisher) for quantitative analysis or 8-well Labtek II plates (Fisher) for qualitative imaging at 100× magnification. The cells were grown to 80–90% confluency in a 37 °C humidified atmosphere containing 5% CO2. Cells were washed three times with Leibovitz’s L15 media (L15) (Fisher). Cells were then incubated with peptide and 20 µM of the TMR-k5 pentalysine probe at 37 °C for 1 h. This was followed by washing the cells three times with L15 supplemented with heparin (Sigma-Aldrich) (1 mg/mL) and an extra L15 wash. […] Additionally, the cell permeable dye Hoechst 33342 (Thermo Fisher Scientific o) was used for nuclear staining. Cells were imaged using an EVOS FL Auto 2 inverted microscope (Thermo Fisher Scientific). The microscope is equipped with a heating chamber maintained at 37 °C. Images were acquired using bright field imaging and five fluorescence filter sets: CFP (Ex = 436 ± 10 nm, Em = 480 ± 20 nm), RFP (Ex = 560 ± 20 nm, Em = 630 ± 35 nm), FITC (Ex = 488 ± 10 nm Em = 520 ± 20 nm), DAPI (Ex = 350 ± 50 nm, Em = 460 ± 25 nm), […]. For image viewing and processing individual images, the Celleste 4.0 software (Thermo Fisher Scientific) was used. Nuclear regions in 20× images where identified using Hoechst staining (the quantification process is described in Figure S13). The intensity of these objects in the TMR channel was then determined using the Celleste software. Cells stained by the SYTOX or DRAQ dyes were considered dead and not counted as positive for delivery. Cells displaying a nuclear TMR-k5 fluorescence above the fluorescence threshold determined for TMR-k5 alone were considered positive for delivery (if excluding SYTOX or DRAQ7 stain, and if visually showing stained nucleoli for confirmation of intracellular localization). The percentage of cells positive for TMR-k5 nuclear staining was then calculated, using Hoechst-stained cells to count the total number of cells present. […] Instead, this assay quantifies the number of cells in which the nuclear fluorescence of TMR-k5 is above a detection threshold. This threshold is dependent on the microscope, imaging conditions, and the concentration of TMR-k5 used during incubation (Figure S13). The reproducibility of all the experiments was assessed by performing experiments with independent batches of cell cultures on three different days (i.e., biological triplicates). […]

`CC(=O)N[C@@H](Cc1ccccc1)C(N)=O` [Ac-F-NH2]: the “pH dependence of TLC retention (1-Rf)” value in data set [1] was “independent of pH”.
Same read-out and setting: with `CCN(CC)c1ccc2cc(C(=O)NCCCCC(NC(C)=O)C(N)=O)c(=O)oc2c1` (stereo not shown) [Ac-K(DEAC)-NH2] the entry was “higher hydrophobicity at pH 4 than at pH 8”; with `CC(=O)N[C@@H](Cc1c[nH]c2ccccc12)C(N)=O` [Ac-W-NH2], “independent of pH”.
Regarding `CC(=O)N[C@@H](Cc1ccc(O)cc1)C(N)=O` [Ac-Y-NH2], the “pH dependence of TLC retention (1-Rf)” value in data set [1] is listed as “independent of pH”.
On to `O=C1OC2(c3ccc(O)cc3Oc3cc(O)ccc32)c2ccccc21` [fluorescein], for which, in data set [2], the “pKa (dianionic/monoanionic forms)” value is 6.4, the “pKa (monoanionic/neutral forms)” value is given as 4.3 and the “pKa (neutral/cationic forms)” value is 2.1.
For “(CK(TMR)RKKRRQRRR)2 (disulfide) [dfTAT, dimer of TAT linked by a cystine disulfide bridge, labeled with two tetramethylrhodamine fluorophores]”, in data set [3], the endosomal escape entry is given as “high levels of endosomal escape”; the “time for cell penetration and payload delivery” value was “less than an hour”. For the same molecule, in data set [3] (protein payloads co-incubated with dfTAT), the “protein payload remaining trapped inside endosomes relative to what entered the cytosol” value is given as “less than 10%”.
Take “(K(RhB))TAT: monomeric peptide CXRKKRRQRRRG with X = K(RhB) (CK(RhodamineB)RKKRRQRRRG-NH2)”: the “effect of dimerization on hydrophobicity (dimer vs monomer)” value in data set [4] (pH 2, (X)TAT vs d(X)TAT) is listed as “most impacted by dimerization”.
“d(K(RhB))TAT: disulfide dimer of CXRKKRRQRRRG with X = lysine conjugated to rhodamine B (CK(RhodamineB)RKKRRQRRRG-NH2; also: disulfide dimer)”: in data set [4] (0.1% TFA (pH 2), ranking within the d(X)TAT series), the “relative hydrophobicity of X group by C18 HPLC” value is on record as “most hydrophobic”. For the same molecule, the “d(X)TAT concentration at which delivery is achieved in a high percentage of cells” value in data set [5] is < 3 µM.
